Results from DBAASP.
≈ marks a conversion by molar mass, not a printed value. One block for each compound: values may come before it.

Columns and labels:
Experiment in all cases: ≥ marks a high value that may be exact or a test limit, other limits are often not marked, values filed in µg/mL are converted to µM
[1] = test system: Staphylococcus aureus NCTC 12981
[2] = test system: Staphylococcus aureus ATCC 25923
[3] = test system: Escherichia coli ATCC 25922
[4] = test system: Escherichia coli NCTC 10418
[5] = test system: Pseudomonas aeruginosa CUN 4158-02
[6] = test system: Bordetella bronchiseptica CUN 11844-99
[7] = test system: Staphylococcus pseudintermedius
Pseudomonas aeruginosa = test system: Pseudomonas aeruginosa
[8] = test system: Staphylococcus aureus ATCC 29213
[9] = test system: Pseudomonas aeruginosa ATCC 27853
[10] = test system: Aeromonas salmonicida CIP 103209T
[11] = test system: Escherichia coli CIP 54.8T
[12] = test system: Vibrio alginolyticus CIP 109819
[13] = test system: Staphylococcus aureus CIP 53.156
[14] = test system: Listeria monocytogenes CIP 110871
[15] = test system: Enterococcus faecalis CIP 76.117
[16] = test system: Bacillus megaterium CIP 51.17
[17] = test system: Salmonella typhimurium CIP 103446
[18] = test system: Candida parapsilosis ATCC 20224
Candida krusei ATCC 6258 = test system: Candida krusei ATCC 6258
[19] = test system: Candida glabrata ATCC 90525
[20] = test system: Candida tropicalis ATCC 20240
[21] = test system: Candida albicans ATCC 2048
Escherichia coli ML-35 = test system: Escherichia coli ML-35
[22] = test system: Salmonella enterica subsp. enterica serovar Typhimurium ATCC 14028
[23] = test system: Serratia marcescens ATCC 8100
Bacillus megaterium Bm11 = test system: Bacillus megaterium Bm11
[24] = test system: Staphylococcus epidermidis ATCC 12228
Escherichia coli D21 = test system: Escherichia coli D21
[25] = test system: Staphylococcus aureus ATCC 6538
[26] = test system: Kocuria rhizophila ATCC 9341
[27] = test system: Escherichia coli ATCC 8739
[28] = test system: Escherichia coli ATCC 35218
[29] = test system: Enterococcus faecium BM4147
[30] = test system: Enterococcus faecalis ATCC 29212
Escherichia coli K-12 = test system: Escherichia coli K-12
[31] = test system: Staphylococcus aureus ST1065
[32] = test system: Staphylococcus aureus DAR 5829
[33] = test system: Staphylococcus epidermidis BM3302
[34] = test system: Bacillus subtilis subsp. subtilis CIP 52.65
Escherichia coli ML-35p = test system: Escherichia coli ML-35p

MIC [1]: ≥ 234 µM
MIC [2]: 183 µM (≈ 99.8 µg/mL)
MIC [3]: > 366 µM
MIC [4]: ≥ 234 µM
Compound: NC(=O)[C@H](Cc1c[nH]c2ccccc12)NC(=O)[C@H](CCCN=C(N)N)NC(=O)[C@@H](N)Cc1c[nH]c2ccccc12 [WRW]

MIC [7]: 16.2 µM (≈ 45.9 µg/mL)
MIC (Pseudomonas aeruginosa): 4.04 µM (≈ 11.5 µg/mL)
MIC [8]: 11.4 µM (≈ 32.5 µg/mL)
MIC [9]: 5.72 µM (≈ 16.2 µg/mL)
Compound: CC[C@H](C)[C@H](NC(=O)[C@H](CC(C)C)NC(=O)[C@@H]1CCCN1C(=O)[C@H](CCCCN)NC(=O)[C@H](CC(C)C)NC(=O)[C@H](CCCN=C(N)N)NC(=O)[C@H](CCCN=C(N)N)NC(=O)[C@H](CC(C)C)NC(C)=O)C(=O)N[C@@H](CCCN=C(N)N)C(=O)N1CCC[C@H]1C(=O)N[C@@H](Cc1c[nH]c2ccccc12)C(=O)N[C@@H](CC(C)C)C(=O)N[C@@H](CCCN=C(N)N)C(=O)N1CCC[C@H]1C(=O)N[C@@H](CC(C)C)C(=O)N[C@@H](CCCN=C(N)N)C(=O)N[C@@H](CCCN=C(N)N)C(=O)N[C@@H](Cc1c[nH]c2ccccc12)C(=O)N[C@@H](Cc1c[nH]c2ccccc12)C(=O)N[C@@H](Cc1c[nH]c2ccccc12)C(N)=O [LRRLKPLIRPWLRPLRRWWW]

MIC (Escherichia coli ML-35): ≥ 32 µM
MIC [22]: 32 µM (≈ 61.2 µg/mL)
MIC [23]: ≥ 32 µM
MIC (Bacillus megaterium Bm11): ≥ 32 µM
MIC [24]: > 64 µM
MIC (Escherichia coli D21): 16 µM (≈ 30.6 µg/mL)
Compound: CC(C)C[C@H](NC(=O)[C@H](Cc1ccc(O)cc1)NC(=O)[C@@H]1CCCN1C(=O)[C@@H]1CCCN1C(=O)[C@H](CCCN=C(N)N)NC(=O)[C@@H]1CCCN1C(=O)[C@H](CCCN=C(N)N)NC(=O)[C@H](CCCN=C(N)N)NC(=O)[C@@H](N)CCCN=C(N)N)C(=O)N[C@@H](CCCN=C(N)N)C(=O)N1CCC[C@H]1C(=O)N[C@@H](CCCN=C(N)N)C(=O)N1CCC[C@H]1C(=O)N1CCC[C@H]1C(=O)N1CCC[C@H]1C(=O)O [RRRPRPPYLRPRPPP]

Continued, compound first:

Compound: CC[C@H](C)[C@H](NC(=O)CN)C(=O)NCC(=O)N[C@@H](CCCCN)C(=O)N[C@@H](Cc1ccccc1)C(=O)N[C@@H](CO)C(=O)N[C@@H](CCCCN)C(=O)N[C@@H](CCCCN)C(=O)NCC(=O)N[C@@H](C)C(=O)N[C@@H](C)C(=O)N[C@@H](C)C(=O)N[C@@H](CCCN=C(N)N)C(=O)N[C@@H](CCCN=C(N)N)C(=O)N[C@@H](CCCN=C(N)N)C(=O)N[C@@H](CCCCN)C(=O)N[C@H](C(=O)N[C@@H](CO)C(=O)N[C@@H](CC(C)C)C(=O)N[C@@H](CCCCN)C(=O)N[C@@H](C)C(=O)N[C@@H](CC(C)C)C(N)=O)C(C)C [GIGKFSKKGAAARRRKVSLKAL]
MIC [2]: > 219 µM
MIC [5]: ≥ 219 µM
MIC [3]: > 219 µM
MIC [6]: ≥ 219 µM

Compound: CC[C@H](C)[C@H](NC(=O)[C@@H](N)CCCCN)C(=O)N[C@@H](CCCN=C(N)N)C(=O)N[C@@H](Cc1ccccc1)C(=O)N[C@H](C(=O)N[C@@H](CCCN=C(N)N)C(=O)N[C@H](C(=O)N[C@H](C(=O)N[C@@H](CO)C(=O)N[C@@H](CCCN=C(N)N)C(=O)N[C@@H](CC(C)C)C(=O)N[C@@H](CC(C)C)C(=O)N[C@@H](CCCCN)C(=O)N[C@@H](C)C(=O)N[C@@H](C)C(=O)N[C@@H](CC(C)C)C(=O)N[C@@H](C)C(=O)N[C@@H](CO)C(=O)N[C@H](C(=O)O)[C@@H](C)O)C(C)C)[C@@H](C)O)[C@@H](C)O [KIRFTRTVSRLLKAALAST]
MIC [10]: 15.8 µM (≈ 33.7 µg/mL)
MIC [11]: 3.16 µM (≈ 6.74 µg/mL)
MIC [12]: ≥ 35.4 µM
MIC [13]: 15.8 µM (≈ 33.7 µg/mL)
MIC [14]: ≥ 50 µM
MIC [15]: ≥ 122 µM
MIC [16]: 3.16 µM (≈ 6.74 µg/mL)
MIC [17]: ≥ 86.6 µM

Compound: C[C@H](NC(=O)CN)C(=O)N[C@@H](CCCCN)C(=O)N[C@@H](CCC(=O)O)C(=O)N[C@@H](CCCN=C(N)N)C(=O)N[C@@H](C)C(=O)N[C@@H](Cc1cnc[nH]1)C(=O)N[C@@H](CCC(N)=O)C(=O)O [GAKERAHQ]
MIC [18]: ≥ 300 µM
MIC (Candida krusei ATCC 6258): ≥ 240 µM
MIC [19]: ≥ 300 µM
MIC [20]: ≥ 290 µM
MIC [21]: ≥ 240 µM

Compound: CC[C@H](C)[C@H](NC(=O)CNC(=O)[C@H](Cc1c[nH]c2ccccc12)NC(=O)[C@@H](NC(=O)CN)C(C)C)C(=O)N[C@@H](C)C(=O)N[C@@H](CCCCN)C(=O)N[C@H](C(=O)N[C@@H](C)C(=O)NCC(=O)N[C@@H](CCCCN)C(=O)N[C@H](C(=O)N[C@@H](CC(C)C)C(=O)NCC(=O)N[C@@H](CC(N)=O)C(=O)N[C@H](C(=O)N[C@@H](CC(C)C)C(=O)N1CCC[C@H]1C(=O)N[C@@H](Cc1cnc[nH]1)C(=O)N[C@H](C(=O)N[C@@H](Cc1ccccc1)C(=O)N[C@@H](CO)C(=O)N[C@@H](CO)C(=O)N[C@@H](CC(N)=O)C(=O)N[C@@H](CCC(N)=O)C(=O)N[C@@H](CO)C(N)=O)C(C)C)[C@@H](C)CC)C(C)C)[C@@H](C)CC [GVWGIAKIAGKVLGNILPHVFSSNQS]
MIC [25]: 6.25 µM (≈ 16.8 µg/mL)
MIC [26]: 3.12 µM (≈ 8.4 µg/mL)
MIC [27]: 25 µM (≈ 67.3 µg/mL)
MIC [28]: ≥ 100 µM
MIC [29]: 25 µM (≈ 67.3 µg/mL)
MIC [30]: 50 µM (≈ 135 µg/mL)
MIC (Escherichia coli K-12): ≥ 100 µM
MIC [31]: 12.5 µM (≈ 33.7 µg/mL)
MIC [8]: 3.12 µM (≈ 8.4 µg/mL)
MIC [32]: 25 µM (≈ 67.3 µg/mL)
MIC [9]: > 100 µM
MIC [33]: 12.5 µM (≈ 33.7 µg/mL)
MIC [34]: 6.25 µM (≈ 16.8 µg/mL)
MIC (Escherichia coli ML-35p): ≥ 100 µM
